Experimental data from article PMC9621233, “4-Cyanamidobenzenesulfonamide derivatives: a novel class of human and bacterial carbonic anhydrase inhibitors” (Journal of Enzyme Inhibition and Medicinal Chemistry, 2022).

Legend:
Experiment in all cases: stopped-flow CO2 hydration assay, phenol red
hCA I = target: T1, hCA I (Homo sapiens, UniProt P00915); assay type: biochemical; settings: read-out: KI (nM)^a / hCA I (α-CA)
T1 construct: gene CA1; recombinant, obtained in-house; cytosolic alpha-CA
Source text: stopped-flow CO2 hydration assay, phenol red on hCA I

hCA XIII = target: T2, hCA XIII (Homo sapiens, UniProt Q8N1Q1); assay type: biochemical; settings: read-out: KI (nM)^a / hCA XIII (α-CA)
T2 construct: gene CA13; recombinant, obtained in-house; cytosolic alpha-CA
T2 sequence (Q8N1Q1 whole entry): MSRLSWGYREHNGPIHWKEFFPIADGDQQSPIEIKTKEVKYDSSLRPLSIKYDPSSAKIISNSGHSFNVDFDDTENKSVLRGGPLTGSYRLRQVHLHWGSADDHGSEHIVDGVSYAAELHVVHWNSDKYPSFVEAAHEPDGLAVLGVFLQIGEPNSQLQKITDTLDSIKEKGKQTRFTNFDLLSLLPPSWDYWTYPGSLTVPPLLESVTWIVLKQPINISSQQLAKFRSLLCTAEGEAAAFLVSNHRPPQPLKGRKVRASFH
Source text: stopped-flow CO2 hydration assay, phenol red on hCA XIII

hCA II = target: T3, hCA II (Homo sapiens, UniProt P00918); assay type: biochemical; settings: read-out: KI (nM)^a / hCA II (α-CA)
T3 construct: gene CA2; recombinant, obtained in-house; cytosolic alpha-CA
Source text: stopped-flow CO2 hydration assay, phenol red on hCA II

StCA2 = target: T4, StCA2; assay type: biochemical, Salmonella enterica subsp. enterica serovar Typhimurium; settings: […] TRIS pH […] Na2SO4, […] h preincubation, room temperature; read-out: KI (nM)^a / StCA2 (β-CA)
T4 construct: recombinant beta-CA, obtained in-house

StCA1 = target: T5, StCA1; assay type: biochemical, Salmonella enterica subsp. enterica serovar Typhimurium; settings: […] TRIS pH […] Na2SO4, […] h preincubation, room temperature; read-out: KI (nM)^a / StCA1 (β-CA)
T5 construct: recombinant beta-CA, obtained in-house

MscCA = target: T6, MscCA; assay type: biochemical, Mammaliicoccus sciuri; settings: […] TRIS pH […] Na2SO4, […] h preincubation, room temperature; read-out: KI (nM)^a / MscCA (β-CA)
T6 construct: recombinant beta-CA, obtained in-house; earlier published as SauCA

hCA VII = target: T7, hCA VII (Homo sapiens, UniProt P43166); assay type: biochemical; settings: read-out: KI (nM)^a / hCA VII (α-CA)
T7 construct: gene CA7; recombinant, obtained in-house; cytosolic alpha-CA
T7 sequence (P43166 whole entry): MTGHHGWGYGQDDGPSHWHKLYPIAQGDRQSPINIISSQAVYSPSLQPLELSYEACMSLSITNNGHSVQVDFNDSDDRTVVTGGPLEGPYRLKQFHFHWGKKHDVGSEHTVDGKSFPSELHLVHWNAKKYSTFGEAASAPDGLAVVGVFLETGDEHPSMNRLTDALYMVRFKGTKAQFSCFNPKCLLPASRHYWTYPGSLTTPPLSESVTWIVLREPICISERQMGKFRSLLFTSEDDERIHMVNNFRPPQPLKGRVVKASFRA
Source text: stopped-flow CO2 hydration assay, phenol red on hCA VII

T1 sequence (P00915 2-261): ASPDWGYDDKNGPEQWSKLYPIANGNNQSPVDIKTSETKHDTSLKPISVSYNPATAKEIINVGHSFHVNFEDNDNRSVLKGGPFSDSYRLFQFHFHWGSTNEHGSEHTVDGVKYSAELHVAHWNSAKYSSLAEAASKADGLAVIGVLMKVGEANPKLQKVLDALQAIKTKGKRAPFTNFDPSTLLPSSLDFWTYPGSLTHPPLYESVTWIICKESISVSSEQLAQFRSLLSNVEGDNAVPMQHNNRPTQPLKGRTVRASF

SMILES | Ki (hCA I) | Ki (hCA XIII) | Ki (hCA II) | Ki (StCA2) | Ki (StCA1) | Ki (MscCA) | Ki (hCA VII)
CN(C#N)c1ccc(S(N)(=O)=O)cc1 [compound 8, 4-(N-Methylcyanamido)benzenesulfonamide] | 557 nM | 117 nM | 29.2 nM | 200 nM | 52.7 nM | 1580 nM | 13.8 nM
CCN(C#N)c1ccc(S(N)(=O)=O)cc1 [compound 9, 4-(N-Ethylcyanamido)benzenesulfonamide] | 88.6 nM | 476 nM | 45.3 nM | 367 nM | 61.5 nM | 3150 nM | 17.9 nM
CCCCN(C#N)c1ccc(S(N)(=O)=O)cc1 [compound 10, 4-(N-Butylcyanamido)benzenesulfonamide] | 16.4 nM | 70.7 nM | 32 nM | 426 nM | 62.7 nM | 4480 nM | 1.3 nM
CCCCCCN(C#N)c1ccc(S(N)(=O)=O)cc1 [compound 11, 4-(N-Hexylcyanamido)benzenesulfonamide] | 9.3 nM | 83 nM | 5.3 nM | 718 nM | 54.6 nM | 6880 nM | 1.5 nM
CCCCCCCN(C#N)c1ccc(S(N)(=O)=O)cc1 [compound 12, 4-(N-Heptylcyanamido)benzenesulfonamide] | 38.2 nM | 31.5 nM | 7.1 nM | 676 nM | 58.8 nM | 7190 nM | 1.7 nM
CCCCCCCCCCCCCCCCCCN(C#N)c1ccc(S(N)(=O)=O)cc1 [compound 13, 4-(N-Octadecylcyanamido)benzenesulfonamide] | 17.3 nM | 155 nM | 9.5 nM | 791 nM | 66.1 nM | 9170 nM | 2.2 nM
N#CN(c1ccc(S(N)(=O)=O)cc1)C1CCCCC1 [compound 14, 4-(N-Cyclohexylcyanamido)benzenesulfonamide] | 50.6 nM | 83.8 nM | 82.3 nM | 579 nM | 69.5 nM | 5360 nM | 1.9 nM
C=CCN(C#N)c1ccc(S(N)(=O)=O)cc1 [compound 15, 4-(N-Allylcyanamido)benzenesulfonamide] | 74.7 nM | 97.7 nM | 54.1 nM | 645 nM | 51.2 nM | 5100 nM | 2.3 nM
N#CN(Cc1ccccc1)c1ccc(S(N)(=O)=O)cc1 [compound 16, 4-(N-Benzylcyanamido)benzenesulfonamide] | 67.3 nM | 67.8 nM | 61.4 nM | 692 nM | 50.7 nM | 9360 nM | 2 nM
N#CN(Cc1ccc(Br)cc1)c1ccc(S(N)(=O)=O)cc1 [compound 17, 4-(N-(4-Bromobenzyl)cyanamido)benzenesulfonamide] | 389 nM | 53.1 nM | 93.3 nM | 750 nM | 73.1 nM | 9590 nM | 2.4 nM
